Measurements: patent US20260041796A1, “REGULATION OF IMMUNE RESPONSES THROUGH SELECTIVE NEURAL ACTIVATION” (The Trustees of Columbia University in the City of New York, priority 2021, published 2026)

What was measured:
[1] = system: LPS-TRAPed population in the cNST; experiment: Blood cytokine levels after LPS with chemogenetic (DREADD) activation of LPS-TRAPed cNST neurons; assay type: in vivo
Method: FIG. 12 illustrates the effect of neuronal stimulation in the caudal nucleus of the solitary tract on the immune response. […] Neuronal populations were chemogenetically activated with designer receptor exclusively activated by a designer drug (DREADD) while the animal is given LPS and cytokine levels in the blood were measured. In the control animals, LPS induced the strong release of pro-inflammatory TNFa, reaching 200 pg/ml in the peripheral blood. When this brainstem neuronal population was activated with DREADD, there was a remarkable suppression of pro-inflammatory cytokine release, resulting in 90% reduction in the TNFa in the blood. The same results were obtained for another proinflammatory cytokine, IL-6. In addition to suppressing the release of pro-inflammatory cytokines, activation of this neuronal population markedly increase the release of the anti-inflammatory cytokine, IL-10. Thus, this brain circuit triggers a strong anti-inflammatory response while suppressing pro-inflammatory cytokines. Note that under normal conditions (control) the immune insult triggers a very large induction of pro-inflammatory cytokines (TNFa; left panels), and this induction is suppressed by activation of the cNST neurons (compare bars). […]
FIG. 19 illustrates that activating cNST-responsive neurons dramatically suppresses inflammatory responses. […] These neurons were artificially activated after LPS using a synthetic drug, CNO, and then cytokine levels in the circulation were analyzed in response to LPS.
It was shown that neurons in the caudal nucleus of the solitary tract (cNST) in the brainstem are activated by peripheral (intraperitoneal) administration of LPS (lipopolysaccharide), a potent inducer of inflammatory responses (FIG. 5). […] Next, to uncover the role of these cNST neurons in immune responses, a chemogenetic silencer was introduced by genetic Trapping, and the effect of silencing these cNST neurons in the emergence of LPS-induced inflammatory responses was evaluated. […]

[2] = system: caudal nucleus of the solitary tract (cNST); experiment: Fos induction in the brain after peripheral LPS immune challenge; assay type: in vivo; settings: LPS stimulus vs saline control; c-fos as proxy for neural activity
Excerpt: Peripheral immune challenge evokes brain activities. LPS was used to induce an innate immune response and the brain was examined for the induction of c-fos as a proxy for neural activity. […] When the body experiences bacterial infections, the bacterial membrane component lipopolysaccharide (LPS) triggers strong innate immune response. LPS (right) but not saline control (left) strongly activates cNST (circled area). For each condition, a representative image from N>=3 animals is shown. Scale bar: 100 μm. Strong bilateral c-fos labeling was detected in the caudal nucleus of the solitary tract (cNST) in the brainstem.
A brainstem circuit that functions as a conduit to convey peripheral immune information to the brain was identified. […] Using an activity marker (cFos induction), it was determined that a selective population of neurons in the brain are activated in response to administration of a peripheral immune insult.
It was shown that neurons in the caudal nucleus of the solitary tract (cNST) in the brainstem are activated by peripheral (intraperitoneal) administration of LPS (lipopolysaccharide), a potent inducer of inflammatory responses (FIG. 5). […] Next, to uncover the role of these cNST neurons in immune responses, a chemogenetic silencer was introduced by genetic Trapping, and the effect of silencing these cNST neurons in the emergence of LPS-induced inflammatory responses was evaluated.

[3] = system: caudal nucleus of the solitary tract (cNST); experiment: TRAP activity-based labelling of LPS-responsive neurons; assay type: in vivo; settings: LPS-treated vs saline treated animals
Excerpt: The activity based labelling strategy, TRAP, was used to identify and access neuronal populations activated during LPS induced inflammation. Neurons TRAPed by LPS (right) but not saline control (left) are seen in the cNST (circled area). For each condition, a representative image from N>=3 animals is shown. Scale bar: 500 μm.
It was shown that neurons in the caudal nucleus of the solitary tract (cNST) in the brainstem are activated by peripheral (intraperitoneal) administration of LPS (lipopolysaccharide), a potent inducer of inflammatory responses (FIG. 5). […] In other words, the brain monitors and modulates immune responses in the body. […] Next, to uncover the role of these cNST neurons in immune responses, a chemogenetic silencer was introduced by genetic Trapping, and the effect of silencing these cNST neurons in the emergence of LPS-induced inflammatory responses was evaluated.

vagal sensory neurons = experiment: In-vivo calcium imaging (GCaMP6s) of nodose ganglion after intraperitoneal cytokine; settings: intraperitoneal injection; no response to saline or glucose
Method: FIG. 7 illustrates a subset of neurons in the nodose ganglion that respond to pro-inflammatory cytokines. Calcium responses in vagal sensory neurons expressing the genetically encoded fluorescent calcium indicator GCaMP6s were imaged while administering cytokines intraperitoneally. The platform was modified to image the response of vagal sensory neurons to cytokines. The cytokine was administered via intraperitoneal injection and calcium activity in the nodose ganglion was monitored. Heat maps depicting z-score-normalized fluorescence traces from vagal neurons identified as responders of proinflammatory cytokine (TNFa). Neural activity was detected using an in-vivo calcium imaging platform with genetically encoded calcium indicator GCaMP6 expressed in all vagal sensory neurons. Each trial represents the activity of a single cell. […]
FIG. 8 illustrates a subset of neurons in the nodose ganglion that respond to anti-inflammatory cytokines. Heat maps depicting z-score-normalized fluorescence traces from vagal neurons identified as responders of anti-inflammatory cytokines (IL-4). […] Neural activity was detected using an in-vivo calcium imaging platform with genetically encoded calcium indicator GCaMP6 expressed in all vagal sensory neurons. […] The cytokine was administered via intraperitoneal injection and calcium activity in the nodose ganglion was monitored. […]

[4] = TRAPed cNST neurons activated after LPS, cytokine levels in the circulation

## lipopolysaccharide [LPS]
[1]; control animals given LPS, no neuronal activation
  TNFa in the peripheral blood: 200 pg/mL
[2]
  Fos induction in the cNST: Strong Fos induction
[3]
  labelling of cNST with fluorescence reporter (tdTomato): Strong labelling

## C[N+]1([O-])CCN(C2=Nc3cc(Cl)ccc3Nc3ccccc32)CC1 [CNO, clozapine N-oxide]
[1]; [4]
  levels of anti-inflammatory cytokines: very large increase
  release of pro-inflammatory cytokines: dramatic suppression

## TNFa
Vagal sensory neurons
  calcium activity in a subset of vagal sensory neurons: robust activity

B1: IL-4: anti-inflammatory cytokine administered intraperitoneally (protein, UniProt P05112 25-153, looked up)
Interleukin-4: HKCDITLQEIIKTLNSLTEQKTLCTELTVTDIFAASKNTTEKETFCRAATVLRQFYSHHEKDTRCLGATAQQFHRHKQLIRFLKRLDRNLWGLAGLNSCPVKEANQSTLENFLERLKTIMREKYSKCSS
Vagal sensory neurons
  calcium activity in a subset of vagal sensory neurons: robust activity
